# Data reported in patent publication US10034886B2, “GLP-1 receptor modulators” (Celgene International II SÀRL, priority 2014, dated 2018).
# Biological target: T1, GLP-1R (Homo sapiens, UniProt P43220)
# T1 construct: host or cells: GLP-1R CRE-bla CHO-K1 cells
# Assay: EC20 GLP-1(9-36) PAM cAMP assay: dose response of compound in the presence of fixed concentration of GLP-1(9-36)
# Type: cell-based
# Conditions: GLP-1R CRE-bla CHO-K1 cells, compound dose response with fixed concentration of GLP-1(9-36), read-out: EC20 GLP-1(9-36) PAM EC50
# Procedure, shortened: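 Positive allosteric modulation read as cAMP accumulation: compound titrations (12 points) combined with an EC20 level of GLP-1(9-36) on CHO-K1 GLP-1R CRE-bla cells, IBMX present, 30 min, 37 °C, pH 7.4 buffer. Luminescence converted to cAMP via standards; non-linear fit gave EC50 and Emax.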
# T1 sequence (P43220 24-463): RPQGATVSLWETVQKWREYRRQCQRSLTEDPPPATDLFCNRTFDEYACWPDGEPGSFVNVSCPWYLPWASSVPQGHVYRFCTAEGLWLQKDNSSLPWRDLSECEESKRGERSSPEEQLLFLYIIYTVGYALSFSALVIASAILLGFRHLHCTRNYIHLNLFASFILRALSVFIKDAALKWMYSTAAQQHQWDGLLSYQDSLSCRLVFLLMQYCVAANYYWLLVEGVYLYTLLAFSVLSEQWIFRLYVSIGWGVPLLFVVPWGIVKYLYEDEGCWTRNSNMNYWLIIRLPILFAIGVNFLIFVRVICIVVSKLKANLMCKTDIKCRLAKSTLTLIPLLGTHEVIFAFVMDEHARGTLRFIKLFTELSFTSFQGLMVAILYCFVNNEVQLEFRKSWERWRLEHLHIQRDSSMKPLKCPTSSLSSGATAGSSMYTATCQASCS
# T1 sequence (P01275 100-127 partner limits assumed): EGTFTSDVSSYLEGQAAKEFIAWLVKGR
row,EC50,Compound
1,< 800 nM,CCCc1ccc(-c2ccc(-c3cnc(-c4ccc(C[C@H](NC(=O)C5CCC(C(C)(C)C)CC5)C(=O)N5CC(C(=O)O)C5)cc4)nc3)c(F)c2)cc1 (stereo partly shown) [Compound 1401]
2,< 800 nM,CCCc1ccc(-c2ccc(-c3cnc(-c4ccc(C[C@H](NC(=O)c5ccc(C(C)(C)CC)cc5)C(=O)N5CC(C(=O)O)C5)cc4)nc3)c(F)c2)cc1 [Compound 1402]
3,< 800 nM,CCCc1ccc(-c2ccc(-c3cnc(-c4ccc(C[C@H](NC(=O)c5ccc(OC(C)(C)C)cc5)C(=O)N5CC(C(=O)O)C5)cc4)nc3)c(F)c2)cc1 [Compound 1403]
4,< 800 nM,CCCc1ccc(-c2ccc(-c3cnc(-c4ccc(C[C@H](NC(=O)c5ccc(S(C)(=O)=O)cc5)C(=O)N5CC(C(=O)O)C5)cc4)nc3)c(F)c2)cc1 [Compound 1404]
5,< 800 nM,CCCc1ccc(-c2ccc(-c3cnc(-c4ccc(C[C@H](NC(=O)c5ccc(CC(C)C)s5)C(=O)N5CC(C(=O)O)C5)cc4)nc3)c(F)c2)cc1 [Compound 1405]
6,< 800 nM,CCCc1ccc(-c2ccc(-c3cnc(-c4ccc(C[C@H](NC(=O)c5ccc(C6CC6)s5)C(=O)N5CC(C(=O)O)C5)cc4)nc3)c(F)c2)cc1 [Compound 1406]
7,< 800 nM,CCCc1ccc(-c2ccc(-c3cnc(-c4ccc(C[C@H](NC(=O)c5ccc(CC(C)C)cc5)C(=O)N5CC(C(=O)O)C5)cc4)nc3)c(F)c2)cc1 [Compound 1407]
8,< 800 nM,CCCc1ccc(-c2ccc(-c3cnc(-c4ccc(C[C@H](NC(=O)c5ccc(C(C)C)cc5)C(=O)N5CC(C(=O)O)C5)cc4)nc3)c(F)c2)cc1 [Compound 1408]
9,< 800 nM,CCCc1ccc(-c2ccc(-c3cnc(-c4ccc(C[C@H](NC(=O)c5ccc(CCC)s5)C(=O)N5CC(C(=O)O)C5)cc4)nc3)c(F)c2)cc1 [Compound 1409]
10,< 800 nM,CCCc1ccc(-c2ccc(-c3cnc(-c4ccc(C[C@H](NC(=O)c5ccc(C6CC6)cc5)C(=O)N5CC(C(=O)O)C5)cc4)nc3)c(F)c2)cc1 [Compound 1410]
11,< 800 nM,"CCCCc1ccc(C2CCN(c3cnc(-c4ccc(C[C@H](NC(=O)c5ccc(C(C)(C)C)s5)C(=O)N5CC(C(=O)O)C5)cc4)nc3)CC2)cc1 [Compound 1412, (S)-1-(2-(5-(tert-butyl)thiophene-2-carboxamido)-3-(4-(5-(4-(4-butylphenyl)-piperidin-1-yl)pyrimidin-2-yl)phenyl)propanoyl)azetidine-3-carboxylic acid]"
12,< 800 nM,"CCC[C@H]1CC[C@H](C2CCN(c3cnc(-c4ccc(C[C@H](NC(=O)c5ccc(C(C)(C)C)s5)C(=O)N5CC(C(=O)O)C5)cc4)nc3)CC2)CC1 [Compound 1413, 1-((S)-2-(5-(tert-butyl)thiophene-2-carboxamido)-3-(4-(5-(4-((1s,4r)-4-propylcyclohexyl)piperidin-1-yl)pyrimidin-2-yl)phenyl)propanoyl)azetidine-3-carboxylic acid]"
13,< 800 nM,CCC[C@H]1CC[C@H](C2CCN(c3cnc(-c4ccc(C[C@H](NC(=O)c5ccc(C(C)(C)C)cc5)C(=O)N5CC(C(=O)O)C5)cc4)nc3)CC2)CC1 [Compound 1414]
14,5000 to 10000 nM,CC(C)(C)OC(=O)N1CCC(C2CCN(c3cnc(-c4ccc(C[C@H](NC(=O)c5ccc(C(C)(C)C)s5)C(=O)N5CC(C(=O)O)C5)cc4)nc3)CC2)CC1 [Compound 1415]
15,< 800 nM,CCC[C@H]1CC[C@H](C2CCN(c3cnc(-c4ccc(C[C@H](NC(=O)c5ccc(C(C)(C)C)s5)C(=O)N5CC[C@H](C(=O)O)C5)cc4)nc3)CC2)CC1 [Compound 1416]
16,800 to 2500 nM,CCCc1ccc(C2CN(c3cnc(-c4ccc(CC(NC(=O)c5ccc(C(C)(C)C)s5)C(=O)N5CC(C(=O)O)C5)cc4)nc3)C2)cc1 (stereo not shown) [Compound 1417]
17,5000 to 10000 nM,CCc1ccc(C2CN(c3cnc(-c4ccc(CC(NC(=O)c5ccc(C(C)(C)C)s5)C(=O)N5CC(C(=O)O)C5)cc4)nc3)C2)cc1 (stereo not shown) [Compound 1418]
18,< 800 nM,CCC[C@H]1CC[C@H](C2CCN(c3cnc(-c4ccc(C[C@H](NC(=O)c5ccc(C(C)(C)C)s5)C(=O)N5CCC[C@H]5C(=O)O)cc4)nc3)CC2)CC1 [Compound 1419]
19,2500 to 5000 nM,CCC[C@H]1CC[C@H](N2CCN(c3cnc(-c4ccc(CC(NC(=O)c5ccc(C(C)(C)C)s5)C(=O)N5CC(C(=O)O)C5)cc4)nc3)C(=O)C2)CC1 (stereo partly shown) [Compound 1420]
20,< 800 nM,CC(C)(C)c1ccc(C(=O)NC(Cc2ccc(-c3ncc(N4CCC5CCCCC5C4)cn3)cc2)C(=O)N2CC(C(=O)O)C2)s1 (stereo not shown) [Compound 1421]
21,800 to 2500 nM,CC(C)C1CCN(c2cnc(-c3ccc(CC(NC(=O)c4ccc(C(C)(C)C)s4)C(=O)N4CC(C(=O)O)C4)cc3)nc2)CC1 (stereo not shown) [Compound 1422]
22,800 to 2500 nM,CC(C)(C)c1ccc(C(=O)NC(Cc2ccc(-c3ncc(N4CCC(C#N)(c5ccccc5)CC4)cn3)cc2)C(=O)N2CC(C(=O)O)C2)s1 (stereo not shown) [Compound 1423]
23,< 800 nM,CC1(C)CCC(C2CCN(c3cnc(-c4ccc(C[C@H](NC(=O)c5ccc(C(C)(C)C)s5)C(=O)N5CC(C(=O)O)C5)cc4)nc3)CC2)CC1 [Compound 1424]

row,EC50,Compound
1,800 to 2500 nM,COc1ccc(C2CCN(c3cnc(-c4ccc(C[C@H](NC(=O)c5ccc(C(C)(C)C)s5)C(=O)N5CC(C(=O)O)C5)cc4)nc3)CC2)cc1 [Compound 1425]
2,800 to 2500 nM,CC(C)(C)c1ccc(C(=O)N[C@@H](Cc2ccc(-c3ncc(N4CCC(c5ccccc5)CC4)cn3)cc2)C(=O)N2CC(C(=O)O)C2)s1 [Compound 1426]
3,< 800 nM,CC1CCC(C2CCN(c3cnc(-c4ccc(C[C@H](NC(=O)c5ccc(C(C)(C)C)s5)C(=O)N5CC(C(=O)O)C5)cc4)nc3)CC2)CC1 (stereo partly shown) [Compound 1427]
4,< 800 nM,CCCCC1CCC(C2CCN(c3cnc(-c4ccc(C[C@H](NC(=O)c5ccc(C(C)(C)C)s5)C(=O)N5CC(C(=O)O)C5)cc4)nc3)CC2)CC1 (stereo partly shown) [Compound 1428]
5,< 800 nM,CCC1CCC(C2CCN(c3cnc(-c4ccc(C[C@H](NC(=O)c5ccc(C(C)(C)C)s5)C(=O)N5CC(C(=O)O)C5)cc4)nc3)CC2)CC1 (stereo partly shown) [Compound 1429]
6,< 800 nM,Cc1ccc(C2CCN(c3cnc(-c4ccc(C[C@H](NC(=O)c5ccc(C(C)(C)C)s5)C(=O)N5CC(C(=O)O)C5)cc4)nc3)CC2)cc1 [Compound 1430]
7,< 800 nM,CC(C)(C)c1ccc(C(=O)N[C@@H](Cc2ccc(-c3ncc(N4CCC(C5CCCCC5)CC4)cn3)cc2)C(=O)N2CC(C(=O)O)C2)s1 [Compound 1431]
8,< 800 nM,CCCc1ccc(C2CCN(c3cnc(-c4ccc(C[C@H](NC(=O)c5ccc(C(C)(C)C)s5)C(=O)N5CC(C(=O)O)C5)cc4)nc3)CC2)cc1 [Compound 1432]
9,< 800 nM,CCC[C@H]1CC[C@H](C2CCN(c3cnc(-c4ccc(C[C@H](NC(=O)c5ccc(C(C)(C)C)s5)C(=O)NCCC(=O)O)cc4)nc3)CC2)CC1 [Compound 1433]
10,5000 to 10000 nM,CCCC1CCC(N2CC=C(c3cnc(-c4ccc(C[C@H](NC(=O)c5ccc(C(C)(C)C)s5)C(=O)N5CC(C(=O)O)C5)cc4)nc3)CC2)CC1 (stereo partly shown) [Compound 1434]
11,800 to 2500 nM,CCC[C@H]1CC[C@H](N2CCN(c3cnc(-c4ccc(C[C@H](NC(=O)c5ccc(C(C)(C)C)s5)C(=O)N5CC(C(=O)O)C5)cc4)nc3)CC2)CC1 [Compound 1435]
12,800 to 2500 nM,CCC[C@H]1CC[C@@H](N2CCN(c3cnc(-c4ccc(C[C@H](NC(=O)c5ccc(C(C)(C)C)s5)C(=O)N5CC(C(=O)O)C5)cc4)nc3)CC2)CC1 [Compound 1436]
13,< 800 nM,CCC[C@H]1CC[C@H](C2CCN(c3cnc(-c4ccc(C[C@H](NC(=O)c5ccc(C(C)(C)C)s5)C(=O)N[C@H](C)C(=O)O)cc4)nc3)CC2)CC1 [Compound 1437]
14,< 800 nM,"CCC[C@H]1CC[C@H](C2CCN(c3cnc(-c4ccc(C[C@H](NC(=O)c5ccc(C(C)(C)C)s5)C(=O)NS(C)(=O)=O)cc4)nc3)CC2)CC1 [Compound 1438, 5-(tert-butyl)-N—((S)-1-(methylsulfonamido)-1-oxo-3-(4-(5-(4-((1s,4r)-4-propylcyclohexyl)piperidin-1-yl)pyrimidin-2-yl)phenyl)propan-2-yl)thiophene-2-carboxamide]"
15,< 800 nM,"CCC[C@H]1CC[C@H](C2CCN(c3cnc(-c4ccc(C[C@H](NC(=O)c5ccc(C(C)(C)C)s5)C(=O)O)cc4)nc3)CC2)CC1 [Compound 1439, (S)-2-(5-(tert-butyl)thiophene-2-carboxamido)-3-(4-(5-(4-((1s,4r)-4-propylcyclohexyl)piperidin-1-yl)pyrimidin-2-yl)phenyl)propanoic acid]"
16,5000 to 10000 nM,CC(C)(C)c1ccc(C(=O)N[C@@H](Cc2ccc(-c3ccc(-n4c5ccccc5c5ccccc54)cc3)cc2)C(=O)O)s1 [Compound 1440]
17,800 to 2500 nM,CCC[C@H]1CC[C@H](C2CCN(c3cnc(-c4ccc(C[C@H](NC(=O)c5ccc(C(C)(C)C)s5)C(=O)N[C@H](C)C(N)=O)cc4)nc3)CC2)CC1 [Compound 1441]
18,< 800 nM,CCC[C@H]1CC[C@H](C2CCN(c3cnc(-c4ccc(C[C@H](NC(=O)c5ccc(C(C)(C)C)s5)C(=O)N5CC(c6nn[nH]n6)C5)cc4)nc3)CC2)CC1 [Compound 1442]
19,< 800 nM,CCC[C@H]1CC[C@H](C2CCN(c3cnc(-c4ccc(C[C@H](NC(=O)c5ccc(C(C)(C)C)s5)C(=O)N[C@H](CC)C(=O)O)cc4)nc3)CC2)CC1 [Compound 1443]
20,< 800 nM,CCC[C@H]1CC[C@H](C2CCN(c3cnc(-c4ccc(C[C@H](NC(=O)c5ccc(C(C)(C)C)s5)C(=O)N[C@@H](C(=O)O)C5CC5)cc4)nc3)CC2)CC1 [Compound 1444]
21,< 800 nM,CCC[C@H]1CC[C@H](C2CCN(c3cnc(-c4ccc(C[C@H](NC(=O)c5ccc(C(C)(C)C)s5)C(=O)N[C@H](CCC(N)=O)C(=O)O)cc4)nc3)CC2)CC1 [Compound 1445]
22,< 800 nM,CCC[C@H]1CC[C@H](C2CCN(c3cnc(-c4ccc(C[C@H](NC(=O)c5ccc(C(C)(C)C)s5)C(=O)N[C@H](Cc5c[nH]cn5)C(=O)O)cc4)nc3)CC2)CC1 [Compound 1446]
23,< 800 nM,CCC[C@H]1CC[C@H](C2CCN(c3cnc(-c4ccc(C[C@H](NC(=O)c5ccc(C(C)(C)C)s5)C(=O)N[C@H]5C[C@H](C(=O)O)C5)cc4)nc3)CC2)CC1 [Compound 1447]
